Experimental data published in US11957687B2 (REGENERON PHARMACEUTICALS, INC., priority 2019, dated 2024).

Legend:
HSD17B13 = HSD17B13 (Homo sapiens (Human), UniProt Q7Z5P4); experiment: HSD17B13 enzymatic inhibition assay (150 nM or 50 nM HSD17B13); format: biochemical; conditions: 50 nM HSD17B13; read-out: Inhibition of 50 nM of HSD17B13 IC50
HSD17B1 = HSD17B1 (Homo sapiens (Human), UniProt P14061); experiment: HSD17B1 enzymatic blocking assay; format: biochemical; conditions: 25 μM Estradiol, 500 μM NAD; read-out: Inhibition of HSD17B1 IC50
Sequence of HSD17B1 (P14061 other isoform, or with tags, fused parts or gaps): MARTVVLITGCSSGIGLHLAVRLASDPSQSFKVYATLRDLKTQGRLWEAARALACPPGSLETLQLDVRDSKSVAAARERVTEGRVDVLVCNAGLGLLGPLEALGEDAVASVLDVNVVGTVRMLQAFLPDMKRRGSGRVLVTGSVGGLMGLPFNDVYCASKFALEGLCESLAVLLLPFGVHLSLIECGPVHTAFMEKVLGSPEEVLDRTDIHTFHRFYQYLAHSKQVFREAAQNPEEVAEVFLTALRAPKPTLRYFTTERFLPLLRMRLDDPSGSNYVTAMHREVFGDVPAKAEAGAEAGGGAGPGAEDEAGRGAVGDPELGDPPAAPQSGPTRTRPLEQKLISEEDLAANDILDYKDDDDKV
Method in brief: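 Activity followed as NADH formed on estradiol oxidation, read by NADH-Glo luminescence after 1 h detection in the dark at room temperature. Compounds preincubated with enzyme 30 min at room temperature; 0.5% DMSO and no-substrate controls. IC50 fitted from luminescence.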

[1] = Microsome stability assay, mouse liver microsomes; format: in vitro ADME; conditions: 1 μM compound, 0.5 mg/mL microsomal protein; for microsomal CLint at 1 h, 1 µM / half-life at 1 h, 1 µM / microsomal CLint at 1 μM / half-life at 1 μM: mouse, mouse liver microsomes, pooled, NADPH, 37° C.; for microsomal CLint at 1 h, 1 µM / microsomal CLint at 1 μM: read-out: Microsome Stability Mouse liver microsomes Cl; for half-life at 1 h, 1 µM / half-life at 1 μM: read-out: Microsome Stability Mouse liver microsomes T½
Method in brief: (§1)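 Compound at 1 μM incubated at 37° C with pooled human or mouse liver microsomes (0.5 mg/mL protein) plus NADPH regenerating system, sampled at 0–60 min; a 60-min no-NADPH incubation also included. Single replicate; LC/MS/MS disappearance from analyte/internal standard peak area ratios, without standard curve.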

[2] = Microsome stability assay, human liver microsomes; format: in vitro ADME; conditions: 1 μM compound, 0.5 mg/mL microsomal protein
Method in brief: as §1

HSD17B2 = HSD17B2 (Homo sapiens (Human), UniProt P37059); experiment: HSD17B2 enzymatic blocking assay; format: biochemical; conditions: 1.8 μM Estradiol, 650 μM NAD; read-out: Inhibition of HSD17B2 IC50
Sequence of HSD17B2 (P37059 other isoform, or with tags, fused parts or gaps): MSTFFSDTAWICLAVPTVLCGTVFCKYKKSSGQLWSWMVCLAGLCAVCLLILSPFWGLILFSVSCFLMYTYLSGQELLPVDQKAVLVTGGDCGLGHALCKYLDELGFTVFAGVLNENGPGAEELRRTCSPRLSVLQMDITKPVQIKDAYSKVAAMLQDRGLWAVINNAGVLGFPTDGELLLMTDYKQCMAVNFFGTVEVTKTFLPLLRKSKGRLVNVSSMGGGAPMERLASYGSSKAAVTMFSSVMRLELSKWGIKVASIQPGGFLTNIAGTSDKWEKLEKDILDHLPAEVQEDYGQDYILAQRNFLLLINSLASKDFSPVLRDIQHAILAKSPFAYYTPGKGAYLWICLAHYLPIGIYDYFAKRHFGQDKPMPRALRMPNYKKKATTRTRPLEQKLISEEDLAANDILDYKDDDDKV
Method in brief: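 Mammalian-expressed enzyme at 2 ng/μL in 50 mM Tris-HCl pH 7.5 with detergents/BSA, preincubated 15 min at 20° C. with compound (10-point titration). Reaction with 1.8 μM estradiol and 650 μM NAD ran 45 min at 20° C.; NADH measured by NADH-Glo luminescence and IC50 derived.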

[3] = human, human liver microsomes, pooled, NADPH, 37° C., read-out: Microsome Stability Human liver microsomes Cl
[4] = human, human liver microsomes, pooled, NADPH, 37° C., read-out: Microsome Stability Human liver microsomes T½

Sequence of HSD17B13 (Q7Z5P4 other isoform, or with tags, fused parts or gaps): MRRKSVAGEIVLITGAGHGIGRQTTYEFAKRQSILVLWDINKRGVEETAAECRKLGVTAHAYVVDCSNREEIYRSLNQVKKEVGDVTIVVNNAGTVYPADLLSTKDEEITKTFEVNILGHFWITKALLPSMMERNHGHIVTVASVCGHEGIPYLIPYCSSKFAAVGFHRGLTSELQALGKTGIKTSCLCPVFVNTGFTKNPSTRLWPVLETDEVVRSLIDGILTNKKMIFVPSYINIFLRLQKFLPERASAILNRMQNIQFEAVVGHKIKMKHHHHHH

Compound	IC50 (HSD17B13) [µM]	IC50 (HSD17B1) [µM]	Microsome Stability Mouse liver microsomes % Remaining @60 min [1] [%]	microsomal CLint at 1 h, 1 µM [1] [µL/min/mg]	half-life at 1 h, 1 µM [1] [min]	Microsome Stability Human liver microsomes % Remaining @60 min [2] [%]	microsomal CLint at 1 h, 1 µM [2, 3] [µL/min/mg]	half-life at 1 h, 1 µM [2, 4] [min]	IC50 (HSD17B2) [µM]	microsomal CLint at 1 μM [1] [µL/min/mg]	half-life at 1 μM [1] [min]	microsomal CLint at 1 μM [2, 3] [µL/min/mg]	half-life at 1 μM [2, 4] [min]
COc1ccc2c(c1)Sc1ccccc1C2NC(=O)c1ccc(C(F)F)[nH]c1=O (stereo not drawn) [Compound 272, 6-(difluoromethyl)-N-(3-methoxy-9H-thioxanthen-9-yl)-2-oxo-1,2-dihydropyridine-3-carboxamide]	0.43	> 30	13.10	68.2	20.3	73.40	12.1	114	29.7				
CCCC1CCc2cc(OC)ccc2C1NC(=O)c1ccc(C(F)(F)F)[nH]c1=O (stereo not drawn) [Compound 289, N-(6-methoxy-2-propyl-1,2,3,4-tetrahydronaphthalen-1-yl)-2-oxo-6-(trifluoromethyl)-1,2-dihydropyridine-3-carboxamide]	0.08	> 30	22.70	47	29.5	14.90	59.9	23.1	29.4				
CCC1Cc2cc(C)ccc2C1NC(=O)c1ccc(C(F)(F)F)[nH]c1=O (stereo not drawn) [Compound 298, N-(2-ethyl-5-methyl-2,3-dihydro-1H-inden-1-yl)-2-oxo-6-(trifluoromethyl)-1,2-dihydropyridine-3-carboxamide]	0.06	> 30	26.50	45.1	30.7	1	450	3.08	30.9				
CCC1CCc2cc(OC)ccc2C1NC(=O)c1ccc(C(F)(F)F)[nH]c1=O (stereo not drawn) [Compound 299, N-(2-ethyl-6-methoxy-1,2,3,4-tetrahydronaphthalen-1-yl)-2-oxo-6-(trifluoromethyl)-1,2-dihydropyridine-3-carboxamide]	0.1	> 30	43.50	27.4	50.6	11	66.8	20.8	22.6				
Cc1ccc2c(c1)Sc1cc(C)ccc1C2NC(=O)c1cc(-c2ccccc2)c(C(F)(F)F)[nH]c1=O [Compound 306, N-(3,6-dimethyl-9H-thioxanthen-9-yl)-2-oxo-5-phenyl-6-(trifluoromethyl)-1,2-dihydropyridine-3-carboxamide]	0.03	7.47	70.90	9.6	144	12.80	72.9	19	17.3				
Cc1ccc2c(c1)Sc1cc(C)ccc1C2NC(=O)c1cc(-c2ccccn2)c(C(F)(F)F)[nH]c1=O [Compound 307, N-(3,6-dimethyl-9H-thioxanthen-9-yl)-6′-oxo-2′-(trifluoromethyl)-1′,6′ dihydro-[2,3′-bipyridine]-5′-carboxamide]	0.01	2.73	96.20			0.85	154	9	8.98	< 9.6	> 145		
Cc1ccc2c(c1)[C@H](O)CC[C@H]2NC(=O)c1ccc(C(F)(F)F)[nH]c1=O [Compound 311, N-((1R,4R)-4-hydroxy-6-methyl-1,2,3,4-tetrahydronaphthalen-1-yl)-2-oxo-6-(trifluoromethyl)-1,2-dihydropyridine-3-carboxamide]	0.19	> 30	105			67.80	10.5	132	> 100	< 9.6	> 145		
CCC1Cc2cc(C)ccc2C(NC(=O)c2ccc(C(F)(F)F)[nH]c2=O)C1 (stereo not drawn) [Compound 388, N-(3-ethyl-6-methyl-1,2,3,4-tetrahydronaphthalen-1-yl)-2-oxo-6-(trifluoromethyl)-1,2-dihydropyridine-3-carboxamide]	0.05	> 30	24.60	47.4	29.2	10	150	9.26	25.8				

Continued, values first:

IC50 (HSD17B13) [µM]	IC50 (HSD17B1) [µM]	Microsome Stability Mouse liver microsomes % Remaining @60 min [1] [%]	microsomal CLint at 1 h, 1 µM [1] [µL/min/mg]	half-life at 1 h, 1 µM [1] [min]	Microsome Stability Human liver microsomes % Remaining @60 min [2] [%]	microsomal CLint at 1 h, 1 µM [2, 3] [µL/min/mg]	half-life at 1 h, 1 µM [2, 4] [min]	IC50 (HSD17B2) [µM]	microsomal CLint at 1 μM [1] [µL/min/mg]	half-life at 1 μM [1] [min]	microsomal CLint at 1 μM [2, 3] [µL/min/mg]	half-life at 1 μM [2, 4] [min]	Compound
0.38	21.4	46	24.6	56.3	62	15.8	87.7	> 100					COc1ccc2c(c1)Oc1cnccc1C2NC(=O)c1ccc(C(F)(F)F)[nH]c1=O (stereo not drawn) [Compound 327, N-(8-methoxy-5H-chromeno[2,3-c]pyridin-5-yl)-2-oxo-6-(trifluoromethyl)-1,2-dihydropyridine-3-carboxamide]
0.51	> 30	83.70			0.73	157	8.84	65.4	< 9.6	> 145			COC1Cc2cc(C)ccc2C1NC(=O)c1ccc(C(F)(F)F)[nH]c1=O (stereo not drawn) [Compound 351, N-(2-methoxy-5-methyl-2,3-dihydro-1H-inden-1-yl)-2-oxo-6-(trifluoromethyl)-1,2-dihydropyridine-3-carboxamide]
0.7	> 30	88.70			5.86	93.5	14.8	> 100	< 9.6	> 145			COc1ccc2c(c1)CC(OC)C2NC(=O)c1ccc(C(F)(F)F)[nH]c1=O (stereo not drawn) [Compound 352, N-(2,5-dimethoxy-2,3-dihydro-1H-inden-1-yl)-2-oxo-6-(trifluoromethyl)-1,2-dihydropyridine-3-carboxamide]
0.59	> 30	36.20	32.8	42.2	1	318	4.36	23.1					CC[C@@H]1Oc2cc(C)ccc2[C@H]1NC(=O)c1ccc(C(F)(F)F)[nH]c1=O [Compound 360, N-((2S,3R)-2-ethyl-6-methyl-2,3-dihydrobenzofuran-3-yl)-2-oxo-6-(trifluoromethyl)-1,2-dihydropyridine-3-carboxamide]
0.08	> 30	70			58.50			27.5	12.1	114	15.3	90.7	CCC[C@H]1C[C@@H](NC(=O)c2ccc(C(F)(F)F)[nH]c2=O)c2cc(C)ccc2N1 [Compound 362, N-((2S,4R)-6-methyl-2-propyl-1,2,3,4-tetrahydroquinolin-4-yl)-2-oxo-6-(trifluoromethyl)-1,2-dihydropyridine-3-carboxamide]
0.05	> 30	21.60	52	26.6	2.70	112	12.3	27.7					CCCC1Cc2cc(C)ccc2C(NC(=O)c2ccc(C(F)(F)F)[nH]c2=O)C1 (stereo not drawn) [Compound 387, N-(6-methyl-3-propyl-1,2,3,4-tetrahydronaphthalen-1-yl)-2-oxo-6-(trifluoromethyl)-1,2-dihydropyridine-3-carboxamide]
